This note sets out measurements from US4921871A, “Enolamides, pharmaceutical compositions and methods of use thereof for treating inflammation” (Warner-Lambert Company, priority 1987, dated 1990).

For test [1], the system named is Human Leukocyte Lipoxygenase. The experiment in a line: Human Leukocyte Lipoxygenase Assay (LDA-H). The format is biochemical. The procedure:
Whole blood is collected from normal volunteers and spun in a refrigerated centrifuge for four minutes at 1°-6° C. at 3800 g. The buffy coat is manually separated and washed twice with chilled 0.83% NH4 Cl and centrifuged at 1000 RPM for ten minutes at 4° C. The white cell is suspended in culture media-EMEM supplemented with 6% Agamma human serum, tricine buffer, and neomycin and recentrifuged at 1000 g to yield a pellet containing the leukocytes used for the preparation of the acetone pentane powder.
The acetone-pentane powder is prepared utilizing a modification of the procedure reported for human platelet lipoxygenase. See Siegel, et al, Arachidonate Metabolism via Lipoxygenase and 12-L-hydro-peroxy-5 Eicosatetraenoic Acid Peroxidase Sensitive to Antiinflammatory Drugs, Proc. Natl. Acad. Sci., U.S.A. 77:308, 1980 and D. P. Wallach and V. R. Brown, A Novel Preparation of Human Platlet Lipoxygenase, Biochem. Biophys. Acta. 663:361, 1981. Buffy coat prepared above is resuspended in 5-7 volumes of cold 0.1M Tris buffer, pH 7.4 containing 0.154M NaCl. The suspension is centrifuged at 13,300 g for ten minutes at 4° C. The resultant pellet is retained, resuspended in five volumes of cold acetone, recentrifuged at 13,300 g and resuspended in five volumes of cold pentane. The pentane suspension is centrifuged for ten minutes at 13,300 g to give a pellet which is dried in the cold under vacuum with periodic pulverization. The dry powder is stable for several weeks when stored at -80° C.
Enzyme stock solution is prepared in the following manner. About 15 mg of the acetone-pentane powder is suspended in 4 ml of cold tris buffer (0.1M, pH 7.4), allowed to stand for five minutes, and homogenized thoroughly. The homogenate is sonicated three times for 15 seconds each time, diluted to 7 ml with cold tris buffer (0.1M, pH 7.4), and centrifuged at 4° C. for 60 minutes at 13,300 g. The supernatent is retained and diluted to a total of 10 ml with cold tris buffer (0.1M, pH 7.4) to give the stock enzyme solution. Additional dilutions of 2-50 fold are done as necessary to locate optimal enzyme reaction rate in the assay described below.
Substrate solution is prepared at 100 μM or 1.0 μM concentrations of arachidonic acid or linoleic acid in 0.1M tris buffer, pH 9.0 containing 20% ethanol.
The enzyme reaction is followed spectrophotometrically by the appearance of a conjugated diene product at 234 nm. The reaction is monitored at 24° C. using a Gilford Model 2600 spectrophotometer. […] The effects of inhibitors on the reaction are compared with control reactions run under indentical conditions. Routinely, each compounds of the present invention is incubated with the enzyme for five minutes prior to addition of substrate to initiate the reaction. Inhibition expressed as IC50 as molar concentration of the compound required to reduce reaction rate to 50% control.

The target in test [2] is T1, human leukocyte 5-lipoxygenase (Homo sapiens, UniProt P09917).
T1 construct: endogenous in cells; host or cells: leukocytes from fresh human blood
T1 sequence (P09917 1-674): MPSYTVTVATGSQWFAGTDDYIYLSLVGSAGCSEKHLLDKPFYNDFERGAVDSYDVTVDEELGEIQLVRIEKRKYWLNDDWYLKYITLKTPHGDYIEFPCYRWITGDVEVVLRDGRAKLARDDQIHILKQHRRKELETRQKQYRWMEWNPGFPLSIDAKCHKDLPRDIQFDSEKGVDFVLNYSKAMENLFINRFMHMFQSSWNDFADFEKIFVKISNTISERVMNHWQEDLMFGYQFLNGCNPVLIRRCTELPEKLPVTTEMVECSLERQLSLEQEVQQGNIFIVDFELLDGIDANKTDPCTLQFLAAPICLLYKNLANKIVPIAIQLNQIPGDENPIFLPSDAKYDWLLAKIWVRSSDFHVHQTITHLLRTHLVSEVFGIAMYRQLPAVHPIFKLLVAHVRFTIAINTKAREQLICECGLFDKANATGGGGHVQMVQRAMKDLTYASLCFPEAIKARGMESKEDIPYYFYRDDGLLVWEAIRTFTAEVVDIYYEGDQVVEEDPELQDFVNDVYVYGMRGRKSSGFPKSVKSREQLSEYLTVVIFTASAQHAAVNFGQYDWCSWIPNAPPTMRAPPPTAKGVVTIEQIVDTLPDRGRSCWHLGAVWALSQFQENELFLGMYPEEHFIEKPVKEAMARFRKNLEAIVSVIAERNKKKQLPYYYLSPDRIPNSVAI
Briefly: 5-Lipoxygenase assay in human leukocytes, formation of 5-HETE (5LOA; 5LOA1 or 5LOA2 not specified). In kind it is cell-based. An excerpt:
To Evaluate the Effect of Each Compounds as a 5-Lipoxygenase Inhibitor in Comparison to Standard Reference Agents in Human Leukocytes (5LOAl)
The purpose of this assay is to evaluate the activity of each compound as an inhibitor of human leukocyte 5-lipoxygenase.
Arachidonic acid and calcium ionophore A23l87 are obtained from Sigma (St. Louis, Mo.). Silica gel plates, GF are obtained from Analtech (Newark, Del.). Arachidonic acid, (1-^14 C) and 5-HETE (^3 H), 5 (S)-hydroxy-6-trans, 8,11,14-cis eicosatetraenoic acid, are obtained from New England Nuclear (Boston, Mass.). Six percent Dextran-70 in 0.9% NaCl is obtained from Cutter Labs (Berkeley, Calif.).
Fresh blood from normal adult men who had not received any drugs for at least the previous five days is obtained by the Community Research Clinic (WL/PD) using venipuncture and collected into heparinized vacuotainer tubes. To every 100 ml of pooled blood is added 25 ml of dextran solution (6% dextran -70 in 0.9% sodium chloride containing 3% dextrose) and this is mixed gently in a plastic cylinder. The mixture is left to stand at room temperature for at least 90 minutes. The upper layer which is rich in leukocytes and platelets is then carefully decanted into 50 ml plastic tubes and centrifuged at about 100×g for eight minutes in an IEC centrifuge and rotor number 269 (about 600 rpm). The supernatant fluid is discarded and the pellet is resuspended in 10 ml of 0.87% ammonium chloride for exactly two minutes. This procedure is to lyse completely contaminating red blood cells. Leukocytes are then separated by centrifugation for ten minutes. The pellet is washed three times by suspension in 20 ml PBS (sodium chloride, 7.1 g; Na2 HPO4, 1.15 g; KH2 PO4, 0.2 g, and KCl, 0.2 g/L) and centrifuged as before. The final pellet is suspended in PBS containing 0.87 mM CaCl2. Viability of the cells is then checked using trypan blue exclusion method and is found to be over 90%.
Leukocyte cells in suspension (0.98 ml) are incubated with or without test compounds for five minutes at 37° C. in a shaking water bath. At this time a 17 μl mixture is prepared per 1 ml of cell suspension: 100 mM arachidonic acid, 1 μl, 0.05 μCi ^14 C-arachidonic acid in 5 .rho.l; 1 mM calcium ionophore A23187, 10 μl (1). This mixture is added and the incubation continued for five minutes. The reaction is stopped by adding four volumes of absolute ethanol and the mixture is kept in ice for 30 minutes. The floculated precipitate is separated by centrifugation at about 37,000×g for 20 minutes (Beckman Instruments rotor number 40). The alcohol extract is taken to dryness under a stream of nitrogen and the residue is dissolved in 100-200 μl absolute ethanol. At the time any turbidity is removed by centrifugation. An aliquot (25-50 μl) is applied onto 20×20 cm silica gel TLC plate and developed using the following solvent system: diethyl ether, petroleum ether (2040° C.), acetic acid (50:50: 1 v/v). Zones of 1 cm apart are scraped from the TLC plate and transferred to mini-vials. Methanol (0.5 ml) is added to dissolve the radioactivity adsorbed to the silica gel and scintillation fluid (H.P., Beckman), 5 ml is then added and vials are counted in a liquid scintillation counter. A sample of ^3 H-5-HETE is applied and used for the identification of the formed 5-HETE.
Total radioactivity in the test as well as the control samples are normalized and the amount of 5-HETE present is calculated accordingly.
IC50 values are defined as the concentrations of test agents which caused a 50% inhibition of the formation of 5-HETE as compared to control and are determined by inspection of the concentration-response curves.
The formation of 5-HETE in human leukocytes is considered a measure of 5-lipoxygenase activity. The protocol is described in the following.
Fresh heparinized or EDTA treated human blood is mixed with 6% dextran-3% dextrose in isotonic saline in the ratio 0.25 ml dextran solution per 1.0 ml blood. […]

Values joined by “and” are separate entries in the source; they are usually repeats but may differ in a detail not shown here. Equal values may be shown once. Read-outs that look alike come from different tables or passages of the source.

Take `COc1ccc(CCc2ccc(NC(=O)C3CS(=O)(=O)c4ccccc4C3=O)cc2)cc1NC(C)=O` (centres unmarked) [Example 50, N-[4-[2-(3-Acetylamino-4-methoxy)ethyl]phenyl]-3,4-dihydro-4-oxo-2H-1-benzothiopyran-3-carboxamide, 1,1-dioxide]: the “LDAH, % Inhibition” value in test [1] (8.00 E -5 M) is recorded as 0.0%.
Take `O=C(Nc1ccc(CCCc2ccc(O)c(O)c2)cc1)C1CS(=O)(=O)c2ccccc2C1=O` (centres unmarked) [Example 22]: the IC50 in test [1] (conjugated diene at 234 nm, pH 9.0, 24 °C, read-out: LDAH, concentration for 50% inhibition (IC)) worked out at 13 µM.
`COc1ccc(CCc2ccc(NC(=O)C(=O)c3oc4cc(OC)c(OC)cc4c3O)cc2)cc1OC` [Example 115, 2-Benzofuranacetamide, N-[4-[2-(3,4-dimethoxyphenyl)ethyl]phenyl]-3-hydroxy-5,6-dimethoxy-α-oxo]: the “LDAH, % Inhibition” value in test [1] (8.00 E -5 M) came out at 0.0%.
Consider `O=C(Nc1ccc(CCc2ccc(O)c(O)c2)cc1)C1Oc2c(n(-c3ccccc3)c3ccc(O)cc23)C1=O` (centres unmarked) [Example 163, 2H-Furo[3,2-b]indole-2-carboxamide, N-[4-[2-(3,4-dihydroxyphenyl)ethyl]phenyl]-3,4-dihydro-7-hydroxy-3-oxo-4-phenyl], for which the “LDAH, % Inhibition” value in test [1] (2.50 E -5 M) was 0.0%.
Turning to `CCCCCCCCCCc1ccc(NC(=O)C(=O)C2=C(O)c3ccccc3OC2)cc1` [Example 151, N-(4-Decylphenyl)-4-hydroxy-α-oxo-2H-1-benzopyran-3-acetamide], the “5LOA, % Inhibition” value in test [2] (1.00 E -5 M) stood at 13.9%; in test [2] (4.00 E -5 M), 18.0%.
As to `CCOC(=O)c1ccc(CCc2ccc(NC(=O)C3CS(=O)(=O)c4ccccc4C3=O)cc2)cc1` (centres unmarked) [Example 47, 4-[2-[4-[[(3,4-Dihydro-4-oxo-2H-1-benzothiopyran-3-yl)carbonyl]amino]phenyl]ethyl]benzoic acid, ethyl ester, 1,1-dioxide], the “LDAH, % Inhibition” value in test [1] (8.00 E -5 M) is recorded as 0.0%.
On to `O=C(Nc1ccc(CCc2ccc(Cl)c(Cl)c2)cc1)c1sc2ccccc2c1O` [Example 144], for which the “5LOA, % Inhibition” value in test [2] (2.00 E -5 M) is listed as 42.5%; in test [2] (5.00 E -6 M) it was 36.0%.
For `COc1ccc(CCc2ccc(NC(=O)C3=C(O)c4ccccc4S(=O)(=O)N3C)cc2)cc1OC` [Example 83, N-[4-[2-(3,4-Dimethoxyphenyl)ethyl)phenyl]-4-hydroxy-2-methyl-2H-1,2-benzothiazine-3-carboxamide, 1,1-dioxide], the “5LOA, % Inhibition” value in test [2] is on record as “+1.6%”; in test [2] (2.00 E 0 M), 9.2%.
For the compound `O=C(Nc1ccc(CCCCc2ccc(O)c(O)c2)cc1)C1CS(=O)(=O)c2ccccc2C1=O` (centres unmarked) [Example 23, N-[4-[4-(3,4-Dihydroxyphenyl)butyl]phenyl]-3,4-dihydro-4-oxo-2H-1-benzothiopyran-3-carboxamide, 1,1-dioxide], the “LDAH, % Inhibition” value in test [1] (2.50 E -5 M) was found to be 0.0%.
Take `Cc1ccc(CCc2ccc(NC(=O)C3CS(=O)(=O)c4ccccc4C3=O)cc2)cc1` (centres unmarked) [Example 45]: the “LDAH, % Inhibition” value in test [1] (8.00 E -5 M) turned out to be 0.0%.
For `O=C(Nc1ccc(CCc2ccc(Cl)c(Cl)c2)cc1)C(=O)c1oc2cc3ccccc3cc2c1O` [Example 113, Naphtho[2,3-b]furan-2-acetamide, N-[4-[2-(3,4-dichlorophenyl)ethyl]phenyl]-3-hydroxy-α-oxo], the figures for the “5LOA, % Inhibition” value in test [2] (1.00 E -5 M), in test [2] (2.00 E -5 M) and in test [2] (5.00 E -6 M) were 15.3%, 33.7% and 6.3%, respectively.
As to `Cc1ccccc1CCc1ccc(NC(=O)C2=C(O)c3ccccc3S(=O)(=O)C2)cc1` [Example 43], the “LDAH, % Inhibition” value in test [1] (8.00 E -5 M) was 0.0%.
Regarding `O=C(Nc1ccc(CCc2cc(C(F)(F)F)cc(C(F)(F)F)c2)cc1)c1sc2ccccc2c1O` [Example 148, Benzo[b]thiophene-2-carboxamide, N-[4-[2-[3,5-bis-(trifluoromethyl)phenyl]ethyl]phenyl]-3-hydroxy], the figures for the “5LOA, % Inhibition” value in test [2] (2.00 E -5 M) and in test [2] (5.00 E -6 M) were 19.0% and “+7.3%”, respectively.
As to `O=C(Nc1ccc(CCc2ccc(Cl)c(Cl)c2)cc1)C(=O)C1=C(O)c2ccccc2OC1` [Example 155, 2H-1-Benzopyran-3-acetamide, N-[4-[2-(3,4-dichlorophenyl)ethyl]phenyl]-4-hydroxy-α-oxo], the “5LOA, % Inhibition” value in test [2] (2.00 E -5 M) is on record as 10.1%; in test [2] (4.00 E -5 M) it was 2.3%; in test [2] (5.00 E -6 M), “+7.6%”.
Turning to `COc1ccc(CCc2ccc(NC(=O)C(=O)C3=C(O)c4ccccc4OC3)cc2)cc1OC` [Example 152], the “5LOA, % Inhibition” value in test [2] (1.00 E -5 M) was 23.0%; in test [2] (2.00 E -5 M), 38.1% and 33.9%; in test [2] (4.00 E -5 M) it was 76.3%; in test [2] (8.00 E -5 M), 79.2%.
